According to ChEMBL document CHEMBL1132526, “Spiro-imidazo[1,2-a]indeno[1,2-e]pyrazine-4-one derivatives are mixed AMPA and NMDA glycine-site antagonists active in vivo” (Bioorg Med Chem Lett, 1999):

Legend:
Glutamate NMDA receptor = assay: In vitro binding affinity towards glycine modulatory site on the NMDA receptors using [3H]DCKA as radioligand in rat cortical membrane preparations; format: cell membranes
[1] = biological target: T1, Glutamate receptor ionotropic, AMPA (Rattus norvegicus, UniProt P19490+P19491+P19492+P19493); assay: In vitro binding affinity towards ionotropic glutamate receptor AMPA using [3H]AMPA as radioligand in rat cortical membrane preparations; format: cell membranes
Mus musculus [2] = assay: In vivo activity determined by Maximum electroshock induced seizures (MES) assay in mice after ip administration; format: functional
[3] = biological target: T1, Glutamate receptor ionotropic, AMPA; assay: In vitro binding affinity towards Ionotropic glutamate receptor AMPA using [3H]AMPA as radioligand in rat cortical membrane preparations; format: cell membranes
Mus musculus [4] = assay: In vivo activity determined by Maximum electroshock induced seizures (MES) assay in mice after iv administration; format: functional
[5] = Mus musculus, ip, read-out: ED50

Row | SMILES | IC50 (Glutamate NMDA receptor) | IC50 [1] | ED50 (Mus musculus [2]; [5]) | IC50 [3] | ED50 (Mus musculus [2]) | ED50 (Mus musculus [4]) | ED50 (Mus musculus [4]; Mus musculus, iv, read-out: ED50)
1 | CNC1(C)c2ccccc2-c2nc(O)c3nccn3c21 (configuration not stated) | 2.74 µM | 3.4 µM |  |  |  |  | 
2 | Oc1nc2c(n3ccnc13)Cc1ccccc1-2 | 3 µM | 0.76 µM | 62 mg/kg |  |  |  | 
3 | CC1(N)c2ccccc2-c2nc(O)c3nccn3c21 (configuration not stated) | 1.4 µM | 2.5 µM | 30 mg/kg |  |  |  | 
4 | Oc1nc2c(n3ccnc13)C1(CCCN1Cc1ccccc1)c1ccccc1-2 (configuration not stated) | 1.3 µM | 10 µM |  |  |  |  | 
5 | CC(C)(C)OC(=O)N1CCCC12c1ccccc1-c1nc(O)c3nccn3c12 (configuration not stated) | 0.6 µM | > 10 µM |  |  |  |  | 
6 | CCCC1(N)c2ccccc2-c2nc(O)c3nccn3c21 (configuration not stated) | 0.52 µM | 0.42 µM | 80 mg/kg |  |  |  | 
7 | O=C1CCC2(N1)c1ccccc1-c1nc(O)c3nccn3c12 (configuration not stated) | 1.7 µM | 1.5 µM |  |  |  |  | 
8 | CCCCC1(N)c2ccccc2-c2nc(O)c3nccn3c21 (configuration not stated) | 0.3 µM | 1.7 µM |  |  |  |  | 
9 | CNC(=O)N1CCCC12c1ccccc1-c1nc(O)c3nccn3c12 (configuration not stated) | 1.7 µM | 4 µM |  |  |  |  | 
10 | Oc1nc2c(n3ccnc13)C1(CCNC1)c1ccccc1-2 (configuration not stated) | 0.64 µM | 0.2 µM | > 80 mg/kg |  |  |  | 
11 | O=C(O)CCC(=O)N1CCCC12c1ccccc1-c1nc(O)c3nccn3c12 (configuration not stated) | 10 µM | 0.36 µM | 10 mg/kg |  |  |  | 
12 | Oc1nc2c(n3ccnc13)C1(CCCCN1)c1ccccc1-2 (configuration not stated) | 1.18 µM | 0.39 µM | 45 mg/kg |  |  |  | 
13 | NCC(=O)N1CCCC12c1ccccc1-c1nc(O)c3nccn3c12 (configuration not stated) | 2.8 µM | 0.83 µM | 70 mg/kg |  |  |  | 
14 | CC(=O)N1CCCC12c1ccccc1-c1nc(O)c3nccn3c12 (configuration not stated) | 0.56 µM | 0.61 µM |  |  |  |  | 
15 | Oc1nc2c(n3ccnc13)C1(CCCN1)c1ccccc1-2 (configuration not stated) | 0.28 µM |  | 80 mg/kg | 0.25 µM |  |  | 
16 | Oc1nc2c(n3ccnc13)C1(CCNCC1)c1ccccc1-2 | 2 µM | 0.38 µM |  |  |  |  | 
17 | CC1(C)c2ccccc2-c2nc(O)c3nccn3c21 | 1 µM | 4.4 µM |  |  |  |  | 
18 | Oc1nc2c(n3ccnc13)C1(CC1)c1ccccc1-2 | 0.6 µM | 2.3 µM |  |  |  |  | 
19 | O=C(Nc1ccccc1)N1CCCC12c1ccccc1-c1nc(O)c3nccn3c12 (configuration not stated) | 0.13 µM | 7.1 µM |  |  |  |  | 
20 | Oc1nc2c(n3ccnc13)C1(CCCC1)c1ccccc1-2 | 1.4 µM | 1.6 µM |  |  |  |  | 
21 | CCN1CCCC12c1ccccc1-c1nc(O)c3nccn3c12 (configuration not stated) | 0.53 µM | 0.62 µM | 54 mg/kg |  |  |  | 
22 | O=C(NCc1ccccc1)N1CCCC12c1ccccc1-c1nc(O)c3nccn3c12 (configuration not stated) | 0.9 µM | 10 µM |  |  |  |  | 
23 | CCCN1CCCC12c1ccccc1-c1nc(O)c3nccn3c12 (configuration not stated) | 0.47 µM | 4.3 µM |  |  |  |  | 
24 | CN1CCCC12c1ccccc1-c1nc(O)c3nccn3c12 (single isomer, unassigned; (-)) | 1.16 µM | 4.9 µM |  |  | 80 mg/kg |  | 
25 | CN1CCCC12c1ccccc1-c1nc(O)c3nccn3c12 (stereo in doubt; 3e) | 0.42 µM | 0.2 µM |  |  | 31 mg/kg | 10 mg/kg | 
26 | CN1CCCC12c1ccccc1-c1nc(O)c3nccn3c12 (stereo in doubt; (+)-3e) | 0.172 µM | 0.086 µM |  |  | 17 mg/kg |  | 7 mg/kg
27 | O=C(O)[C@@H]1C[C@H]2C[C@@H](CCc3nn[nH]n3)CC[C@H]2CN1 [TEZAMPANEL ANHYDROUS] | > 10 µM | 0.6 µM | 4 mg/kg |  |  |  | 
28 | O=c1[nH]c2cc(-n3ccnc3)c([N+](=O)[O-])cc2[nH]c1=O [YM-90K] | 10.4 µM | 0.35 µM | 12 mg/kg |  |  |  | 
